Laboratory results published in ChEMBL document CHEMBL1759866, “Discovery of 2,4-bis-arylamino-1,3-pyrimidines as insulin-like growth factor-1 receptor (IGF-1R) inhibitors” (Bioorg Med Chem Lett, 2011).

Tests used:
[1] = tested on: Rattus norvegicus; experiment: In vivo clearance in Sprague-Dawley rat
[2] = Cmax in tumor of CD1 mouse Calu6 tumor xenograft model at 100 mg/kg, po administered twice daily as suspension in 20% captisol in PBS of pH 3.5; type: ADME, organism-based, Neoplasm; design: dose 100 mg/kg, route oral
[3] = Clearance in CD1 mouse Calu6 tumor xenograft model at 12 mg/kg, iv administered as solution in aqueous propylene glycol and 30 mg/kg, po administered as suspension in 20% captisol in PBS of pH 5.73; type: ADME, organism-based; conditions: in vivo
[4] = Oral bioavailability in Sprague-Dawley rat at 5 mg/kg administered as suspension in 1% Tween 80 and 1% HPMC in water after 12 to 24 hrs by LC-MS analysis; type: ADME, organism-based; conditions: in vivo
[5] = Cmax in CD1 mouse Calu6 tumor xenograft model at 30 mg/kg, po administered twice daily as suspension in 20% captisol in PBS of pH 3.5; type: ADME, organism-based; design: dose 30 mg/kg, route oral; conditions: in vivo
[6] = Half life in CD1 mouse Calu6 tumor xenograft model at 12 mg/kg, iv administered as solution in aqueous propylene glycol and 30 mg/kg, po administered as suspension in 20% captisol in PBS of pH 5.73; type: ADME, organism-based; conditions: in vivo
[7] = AUC in tumor of CD1 mouse Calu6 tumor xenograft model at 30 mg/kg, po administered twice daily as suspension in 20% captisol in PBS of pH 3.5; type: ADME, organism-based, Neoplasm; design: dose 30 mg/kg, route oral
[8] = Clearance in Sprague-Dawley rat at 2 mg/kg, iv administered as solution in DSMO and 5 mg/kg, po administered as suspension in 1% Tween 80 and 1% HPMC in water after 12 to 24 hrs by LC-MS analysis; type: ADME, organism-based; conditions: in vivo
[9] = in vivo; conditions: CD1, mouse, tumor and plasma, po, 100 mg/kg, pH 3.5
[10] = Volume of distribution at steady state in Sprague-Dawley rat at 2 mg/kg, iv administered as solution in DSMO and 5 mg/kg, po administered as suspension in 1% Tween 80 and 1% HPMC in water after 12 to 24 hrs by LC-MS analysis; type: ADME, organism-based; conditions: in vivo, read-out: Vdss
[11] = Cmax in CD1 mouse Calu6 tumor xenograft model at 100 mg/kg, po administered twice daily as suspension in 20% captisol in PBS of pH 3.5; type: ADME, organism-based; design: dose 100 mg/kg, route oral; conditions: in vivo
[12] = Volume of distribution at steady state in CD1 mouse Calu6 tumor xenograft model at 12 mg/kg, iv administered as solution in aqueous propylene glycol and 30 mg/kg, po administered as suspension in 20% captisol in PBS of pH 5.73; type: ADME, organism-based; conditions: in vivo, read-out: Vdss
[13] = in vivo; conditions: CD1, mouse, tumor and plasma, po, 30 mg/kg, pH 3.5
[14] = AUC in tumor of CD1 mouse Calu6 tumor xenograft model at 100 mg/kg, po administered twice daily as suspension in 20% captisol in PBS of pH 3.5; type: ADME, organism-based, Neoplasm; design: dose 100 mg/kg, route oral
[15] = Half life in Sprague-Dawley rat at 2 mg/kg, iv administered as solution in DSMO and 5 mg/kg, po administered as suspension in 1% Tween 80 and 1% HPMC in water after 12 to 24 hrs by LC-MS analysis; type: ADME, organism-based; conditions: in vivo
[16] = Cmax in tumor of CD1 mouse Calu6 tumor xenograft model at 30 mg/kg, po administered twice daily as suspension in 20% captisol in PBS of pH 3.5; type: ADME, organism-based, Neoplasm; design: dose 30 mg/kg, route oral
[17] = Half life in CD1 mouse Calu6 tumor xenograft model at 1 mg/kg, iv administered as solution in DMSO and 5 mg/kg, po administered as suspension in 20% captisol in PBS; type: ADME, organism-based; conditions: in vivo
[18] = Clearance in CD1 mouse Calu6 tumor xenograft model at 1 mg/kg, iv administered as solution in DMSO and 5 mg/kg, po administered as suspension in 20% captisol in PBS; type: ADME, organism-based; conditions: in vivo
[19] = Oral bioavailability in CD1 mouse Calu6 tumor xenograft model at 5 mg/kg administered as suspension in 20% captisol in PBS; type: ADME, organism-based; conditions: in vivo
[20] = Half life in Sprague-Dawley rat at 1 mg/kg, iv administered as solution in DSMO and 5 mg/kg, po administered as suspension in 1% Tween 80 and 1% HPMC in water after 12 to 24 hrs by LC-MS analysis; type: ADME, organism-based; conditions: in vivo
[21] = Volume of distribution at steady state in Sprague-Dawley rat at 1 mg/kg, iv administered as solution in DSMO and 5 mg/kg, po administered as suspension in 1% Tween 80 and 1% HPMC in water after 12 to 24 hrs by LC-MS analysis; type: ADME, organism-based; conditions: in vivo, read-out: Vdss
[22] = Clearance in Sprague-Dawley rat at 1 mg/kg, iv administered as solution in DSMO and 5 mg/kg, po administered as suspension in 1% Tween 80 and 1% HPMC in water after 12 to 24 hrs by LC-MS analysis; type: ADME, organism-based; conditions: in vivo
[23] = Volume of distribution at steady state in CD1 mouse Calu6 tumor xenograft model at 1 mg/kg, iv administered as solution in DMSO and 5 mg/kg, po administered as suspension in 20% captisol in PBS; type: ADME, organism-based; conditions: in vivo, read-out: Vdss
[24] = AUC in tumor of CD1 mouse Calu6 tumor xenograft model at 100 mg/kg, po administered twice daily as suspension in 1% Tween 80 and 1% HPMC in water; type: ADME, organism-based, Neoplasm; design: dose 100 mg/kg, route oral
[25] = Cmax in CD1 mouse Calu6 tumor xenograft model at 30 mg/kg, po administered twice daily as suspension in 1% Tween 80 and 1% HPMC in water; type: ADME, organism-based; design: dose 30 mg/kg, route oral; conditions: in vivo
[26] = Cmax in tumor of CD1 mouse Calu6 tumor xenograft model at 30 mg/kg, po administered twice daily as suspension in 1% Tween 80 and 1% HPMC in water; type: ADME, organism-based, Neoplasm; design: dose 30 mg/kg, route oral
[27] = Cmax in tumor of CD1 mouse Calu6 tumor xenograft model at 100 mg/kg, po administered twice daily as suspension in 1% Tween 80 and 1% HPMC in water; type: ADME, organism-based, Neoplasm; design: dose 100 mg/kg, route oral
[28] = in vivo; conditions: CD1, mouse, tumor and plasma, po, 100 mg/kg
[29] = in vivo; conditions: CD1, mouse, tumor and plasma, po, 30 mg/kg
[30] = Cmax in CD1 mouse Calu6 tumor xenograft model at 100 mg/kg, po administered twice daily as suspension in 1% Tween 80 and 1% HPMC in water; type: ADME, organism-based; design: dose 100 mg/kg, route oral; conditions: in vivo
[31] = AUC in tumor of CD1 mouse Calu6 tumor xenograft model at 30 mg/kg, po administered twice daily as suspension in 1% Tween 80 and 1% HPMC in water; type: ADME, organism-based, Neoplasm; design: dose 30 mg/kg, route oral

`COc1cc(Nc2nccc(Nc3cnc4ccccc4c3)n2)cc(OC)c1` gave a CL [1] of 48.3 mL/min/kg.

For `c1ccc2ncc(Nc3ccnc(Nc4ccc(OCCCN5CCCCC5)cc4)n3)cc2c1`, the Cmax [2] was 143000 nM, the clearance [3] was 98.3 mL/min/kg and the bioavailability [4] was 9%. For the same molecule, the Cmax [5] was 180 nM, the half-life [6] was 5.3 h and the AUC [7] was 13.3 µg·h/mL. It also gave a clearance [8] of 10 mL/min/kg, a Kp [9] of 81.9 and a Vd [10] of 9.5 L/kg. It also gave a Cmax [11] of 2220 nM, a Vd [12] of 28.1 L/kg and a Kp [13] of 11.6. The AUC [14] was 1120 µg·h/mL, the half-life [15] was 12.1 h and the Cmax [16] was 1360 nM.

For `COc1cc(Nc2nccc(Nc3ccc4ccccc4c3)n2)cc(OC)c1OC`, the CL [1] was 40 mL/min/kg.

For `COc1cc(Nc2nccc(Nc3cnc4ccccc4c3)n2)ccc1N1CCOCC1`, the CL [1] was 48.3 mL/min/kg.

Molecule `COc1cc(Nc2nccc(Nc3ccc4ncccc4c3)n2)cc(OC)c1OC` has a half-life [17] of 2.3 h, a clearance [18] of 107 mL/min/kg and a bioavailability [4] of 16%. For the same molecule, the bioavailability [19] was 56%, the half-life [20] was 1.3 h and the Vd [21] was 1.1 L/kg. It also gave a clearance [22] of 20 mL/min/kg and a Vd [23] of 1.8 L/kg.

`COc1cc(Nc2nccc(Nc3cc4ccccc4cn3)n2)cc(OC)c1OC` gave a CL [1] of 40 mL/min/kg.

In the case of `COc1cc(Nc2nccc(Nc3cnc4ccccc4c3)n2)cc(OC)c1OC`, the half-life [17] is reported as 1.7 h, the AUC [24] is reported as 5.17 µg·h/mL and the clearance [18] is reported as 26.7 mL/min/kg. It also gave a Cmax [25] of 5340 nM, a bioavailability [4] of 33% and a Cmax [26] of 525 nM. For the same molecule, the bioavailability [19] was 63%, the Cmax [27] was 2720 nM and the Kp [28] was 0.18. For the same molecule, the Kp [29] was 0.129, the half-life [20] was 1.7 h and the Cmax [30] was 13400 nM. For the same molecule, the Vd [21] was 0.2 L/kg, the clearance [22] was 6.67 mL/min/kg and the Vd [23] was 0.3 L/kg. For the same molecule, the AUC [31] was 0.989 µg·h/mL.

For `COc1cc(Nc2nccc(Nc3cnc4ccccc4c3)n2)ccc1OCCCN1CCCCC1`, the CL [1] was 31.7 mL/min/kg.

For `COc1ccc(Nc2nccc(Nc3cnc4ccccc4c3)n2)cc1Cl`, the CL [1] was 48.3 mL/min/kg.

In the case of `COc1cc(Nc2nccc(Nc3ccc4[nH]ncc4c3)n2)cc(OC)c1OC`, the CL [1] is reported as 40 mL/min/kg.
